Measured values reported in US20260138958A1, “SUBSTITUTED N-PHENYLURACILS AND SALTS THEREOF, AND USE THEREOF AS HERBICIDAL ACTIVE SUBSTANCES” (Bayer Aktiengesellschaft, priority 2022, published 2026).
One block for each compound: values may come before it.

How the values were obtained:
Format in all cases: in vivo
[1] = test system: Echinochloa crus-galli (ECHCG); assay: Post-emergence herbicidal action, greenhouse pot test
Procedure: (§1) Seeds of monocotyledonous and dicotyledonous weeds and crop plants were placed in sandy loam in plastic or wood-fibre pots, covered with soil and cultivated in a greenhouse under controlled growth conditions. 2 to 3 weeks after sowing, the test plants were treated at the one-leaf stage. The compounds of the invention, formulated in the form of wettable powders (WP) or as emulsion concentrates (EC), were then sprayed onto the green parts of the plants as aqueous suspension or emulsion with addition of 0.5% additive at a water application rate of 600 l/ha (converted). After the test plants had been kept in the greenhouse under optimum growth conditions for about 3 weeks, the activity of the preparations was rated visually in comparison to untreated controls. For example, 100% activity=the plants have died, 0% activity=like control plants.

[2] = test system: Alopecurus myosuroides (ALOMY); assay: as above
Procedure: as §1

[3] = test system: Digitaria sanguinalis (DIGSA); assay: as above
Procedure: as §1

[4] = test system: Polygonum convolvulus (POLCO); assay: as above
Procedure: as §1

Viola tricolor (VIOTR) = assay: as above
Procedure: as §1

[5] = test system: Pharbitis purpurea (PHBPU); assay: as above
Procedure: as §1

Bassia scoparia (KCHSC) = assay: as above
Procedure: as §1

Veronica persica (VERPE) = assay: as above
Procedure: as §1

[6] = test system: Amaranthus retroflexus (AMARE); assay: as above
Procedure: as §1

[7] = test system: Abutilon theophrasti (ABUTH); assay: as above
Procedure: as §1

[8] = test system: Tripleurospermum inodorum (MATIN); assay: as above
Procedure: as §1

Setaria viridis (SETVI) = assay: as above
Procedure: as §1

Lolium rigidum (LOLRI) = assay: as above
Procedure: as §1

[9] = test system: Triticum aestivum (TRZAS); assay: Post-emergence crop plant compatibility, greenhouse pot test
Procedure: as §1
(§2) The observed effects on selected crop plants are reported here in comparison to the untreated controls (values in %).

Zea mays (ZEAMX) = assay: as above; conditions: Zea mays, in vivo
Procedure: as §1, §2

Post-emergence effect at 1.25 g/ha against TRZAS in % ([9]; Triticum aestivum, in vivo): 10% | Post-emergence effect at 1.25 g/ha against ZEAMX in % (Zea mays (ZEAMX)): 20%
Compound: Cn1c(C(F)(F)F)cc(=O)n(-c2cc(Oc3ccccc3OCC(=O)OCC3CC34CC4)c(Cl)cc2F)c1=O (stereo not shown) [I.7-18, Spiro[2.2]pentan-1-ylmethyl (2-{2-chloro-4-fluoro-5-[3-methyl-2,6-dioxo-4-(trifluoromethyl)-3,6-dihydropyrimidin-1(2H)-yl]phenoxy}phenoxy)acetate]
Post-emergence effect at 5 g/ha against ECHCG in % [1]: 100% | pest or weed control at 20 g/ha ([1]; Echinochloa crus-galli, 504 h, 20 g/ha, read-out: Post-emergence effect at 20 g/ha against ECHCG in %): 100% | Post-emergence effect at 5 g/ha against ALOMY in % [2]: 80% | pest or weed control at 20 g/ha ([2]; Alopecurus myosuroides, 504 h, 20 g/ha, read-out: Post-emergence effect at 20 g/ha against ALOMY in %): 100% | Post-emergence effect at 1.25 g/ha against DIGSA in % [3]: 100% | Post-emergence effect at 5 g/ha against DIGSA in % [3]: 100% | Post-emergence effect at 20 g/ha against DIGSA in % [3]: 100% | Post-emergence effect at 1.25 g/ha against POLCO in % ([4]; 1.25 g/ha): 100% | pest or weed control at 5 g/ha ([4]; Fallopia convolvulus, 504 h, 5 g/ha, read-out: Post-emergence effect at 5 g/ha against POLCO in %): 100% | pest or weed control at 20 g/ha ([4]; Fallopia convolvulus, 504 h, 20 g/ha, read-out: Post-emergence effect at 20 g/ha against POLCO in %): 100% | Post-emergence effect at 1.25 g/ha against VIOTR in % (Viola tricolor (VIOTR)): 100% | Post-emergence effect at 5 g/ha against VIOTR in % (Viola tricolor (VIOTR)): 100% | pest or weed control at 20 g/ha (Viola tricolor (VIOTR); Viola tricolor, 504 h, 20 g/ha, read-out: Post-emergence effect at 20 g/ha against VIOTR in %): 100% | pest or weed control at 5 g/ha ([5]; Ipomoea purpurea, 504 h, 5 g/ha, read-out: Post-emergence effect at 5 g/ha against PHBPU in %): 100% | pest or weed control at 20 g/ha ([5]; Ipomoea purpurea, 504 h, 20 g/ha, read-out: Post-emergence effect at 20 g/ha against PHBPU in %): 100% | Post-emergence effect at 1.25 g/ha against KCHSC in % (Bassia scoparia (KCHSC)): 100% | Post-emergence effect at 5 g/ha against KCHSC in % (Bassia scoparia (KCHSC)): 100% | Post-emergence effect at 20 g/ha against KCHSC in % (Bassia scoparia (KCHSC)): 100% | Post-emergence effect at 1.25 g/ha against VERPE in % (Veronica persica (VERPE)): 80% | pest or weed control at 5 g/ha (Veronica persica (VERPE); Veronica persica, 504 h, 5 g/ha, read-out: Post-emergence effect at 5 g/ha against VERPE in %): 100% | pest or weed control at 20 g/ha (Veronica persica (VERPE); Veronica persica, 504 h, 20 g/ha, read-out: Post-emergence effect at 20 g/ha against VERPE in %): 100% | pest or weed control at 1.25 g/ha ([6]; Amaranthus retroflexus, 504 h, 1.25 g/ha, read-out: Post-emergence effect at 1.25 g/ha against AMARE in %): 100% | pest or weed control at 5 g/ha ([6]; Amaranthus retroflexus, 504 h, 5 g/ha, read-out: Post-emergence effect at 5 g/ha against AMARE in %): 100% | pest or weed control at 20 g/ha ([6]; Amaranthus retroflexus, 504 h, 20 g/ha, read-out: Post-emergence effect at 20 g/ha against AMARE in %): 100% | Post-emergence effect at 1.25 g/ha against ABUTH in % [7]: 100% | pest or weed control at 5 g/ha ([7]; Abutilon theophrasti, 504 h, 5 g/ha, read-out: Post-emergence effect at 5 g/ha against ABUTH in %): 100% | pest or weed control at 20 g/ha ([7]; Abutilon theophrasti, 504 h, 20 g/ha, read-out: Post-emergence effect at 20 g/ha against ABUTH in %): 100% | pest or weed control at 20 g/ha ([8]; Tripleurospermum inodorum, 504 h, 20 g/ha, read-out: Post-emergence effect at 20 g/ha against MATIN in %): 100% | pest or weed control at 5 g/ha (Setaria viridis (SETVI); Setaria viridis, 504 h, 5 g/ha, read-out: Post-emergence effect at 5 g/ha against SETVI in %): 100% | pest or weed control at 20 g/ha (Setaria viridis (SETVI); Setaria viridis, 504 h, 20 g/ha, read-out: Post-emergence effect at 20 g/ha against SETVI in %): 100% | Post-emergence effect at 20 g/ha against LOLRI in % (Lolium rigidum (LOLRI)): 100%

Post-emergence effect at 1.25 g/ha against TRZAS in % ([9]; crop plant, post-emergence, 1.25 g/ha): 20%
Compound: Cn1c(C(F)(F)F)cc(=O)n(-c2cc(Oc3ccccc3OCC(=O)OCC3CC3(F)F)c(Cl)cc2F)c1=O (stereo not shown) [I.7-8]
Post-emergence effect at 5 g/ha against ECHCG in % [1]: 100% | Post-emergence effect at 20 g/ha against ECHCG in % ([1]; 20 g/ha): 100% | Post-emergence effect at 5 g/ha against ALOMY in % [2]: 80% | Post-emergence effect at 20 g/ha against ALOMY in % ([2]; 20 g/ha): 100% | Post-emergence effect at 1.25 g/ha against DIGSA in % [3]: 100% | Post-emergence effect at 5 g/ha against DIGSA in % [3]: 100% | Post-emergence effect at 20 g/ha against DIGSA in % [3]: 100% | Post-emergence effect at 5 g/ha against POLCO in % ([4]; 5 g/ha): 100% | Post-emergence effect at 20 g/ha against POLCO in % ([4]; 20 g/ha): 100% | Post-emergence effect at 1.25 g/ha against VIOTR in % (Viola tricolor (VIOTR)): 100% | Post-emergence effect at 5 g/ha against VIOTR in % (Viola tricolor (VIOTR)): 100% | Post-emergence effect at 20 g/ha against VIOTR in % (Viola tricolor (VIOTR); 20 g/ha): 100% | Post-emergence effect at 1.25 g/ha against PHBPU in % ([5]; 1.25 g/ha): 80% | Post-emergence effect at 5 g/ha against PHBPU in % ([5]; 5 g/ha): 100% | Post-emergence effect at 20 g/ha against PHBPU in % ([5]; 20 g/ha): 100% | Post-emergence effect at 1.25 g/ha against KCHSC in % (Bassia scoparia (KCHSC)): 100% | Post-emergence effect at 5 g/ha against KCHSC in % (Bassia scoparia (KCHSC)): 100% | Post-emergence effect at 20 g/ha against KCHSC in % (Bassia scoparia (KCHSC)): 100% | Post-emergence effect at 1.25 g/ha against VERPE in % (Veronica persica (VERPE)): 100% | Post-emergence effect at 5 g/ha against VERPE in % (Veronica persica (VERPE); 5 g/ha): 100% | Post-emergence effect at 20 g/ha against VERPE in % (Veronica persica (VERPE); 20 g/ha): 100% | Post-emergence effect at 1.25 g/ha against AMARE in % ([6]; 1.25 g/ha): 100% | Post-emergence effect at 5 g/ha against AMARE in % ([6]; 5 g/ha): 100% | Post-emergence effect at 20 g/ha against AMARE in % ([6]; 20 g/ha): 100% | Post-emergence effect at 1.25 g/ha against ABUTH in % [7]: 100% | Post-emergence effect at 5 g/ha against ABUTH in % ([7]; 5 g/ha): 100% | Post-emergence effect at 20 g/ha against ABUTH in % ([7]; 20 g/ha): 100% | Post-emergence effect at 5 g/ha against MATIN in % ([8]; 5 g/ha): 100% | Post-emergence effect at 20 g/ha against MATIN in % ([8]; 20 g/ha): 100% | Post-emergence effect at 1.25 g/ha against SETVI in % (Setaria viridis (SETVI); 1.25 g/ha): 100% | Post-emergence effect at 5 g/ha against SETVI in % (Setaria viridis (SETVI); 5 g/ha): 100% | Post-emergence effect at 20 g/ha against SETVI in % (Setaria viridis (SETVI); 20 g/ha): 100% | Post-emergence effect at 20 g/ha against LOLRI in % (Lolium rigidum (LOLRI)): 80%
